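Interpolation was linear, between the two tested concentrations surrounding the appropriate level; five concentrations were tested over 48 hours in 96-well plates. Here, GI50 denotes the concentration required for 50% inhibition of growth.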 Activity calls are given as the source filed them. Cut-off read from the data, not from the text of the source: active = GI50 up to about 1.1 µM and inactive = higher.

Some test systems named below: UACC-257; NCI-H522; SK-MEL-5; SF-539; COLO 205; KM12; MOLT-4; SK-OV-3; HCT-15; HCT-116; IGROV-1; Malme-3M; U-251; SNB-75; UO-31; SR; ACHN.
Test in all cases: growth of human tumour cells (NCI), 48 h

Consider `C1OC1C1CO1` (centres undefined), for which the GI50 with UACC-257 is 27.9 µM (inactive); in the assay with NCI-H522 it was 33.6 µM (inactive); in the assay with SK-MEL-5, 45.2 µM (inactive); in the assay on SF-539, 59.8 µM (inactive); with COLO 205, > 100 µM (inactive); with KM12, > 100 µM (inactive). The GI50 with MOLT-4 was 3.28 µM (inactive); in the assay with SK-OV-3 it was 57.8 µM (inactive); in the assay with HCT-15, over 100 µM; with HCT-116 it was 95.1 µM (inactive); in the assay with IGROV-1 it was > 100 µM (inactive); with Malme-3M it was > 100 µM (inactive). Further, the GI50 with U-251 was 20.1 µM (inactive); in the assay on SNB-75 it was 14.6 µM (inactive); in the assay with UO-31 it was > 100 µM (inactive); with SR, 3.88 µM (inactive).

For the compound `Cc1nc2c(nc1C)C(=O)c1cc(O)ccc1C2=O`, the GI50 with ACHN was > 100 µM (inactive); in the assay on UACC-257, > 54.6 µM (inactive); in the assay on NCI-H522 it was 57.4 µM (inactive); in the assay on SK-MEL-5, 15.6 µM (inactive); in the assay with SF-539 it was > 81.1 µM (inactive); in the assay on COLO 205, 23.1 µM (inactive). In addition, the GI50 in the assay on KM12 is > 100 µM (inactive); in the assay with MOLT-4 it was > 66.7 µM (inactive); in the assay with SK-OV-3 it was > 100 µM (inactive); with HCT-15 it was 36.9 µM; with HCT-116, 77.6 µM (inactive); in the assay with IGROV-1, 68.9 µM (inactive). Moreover, the GI50 is 20.5 µM (inactive) in the assay with Malme-3M; > 100 µM (inactive) with U-251; > 100 µM (inactive) with SNB-75; > 100 µM (inactive) in the assay on UO-31; 51.1 µM (inactive) in the assay with SR.

`O=[N+]([O-])c1ccc2nc(/C(=N/Nc3ccccc3)C(O)c3ccco3)c(O)nc2c1` (centres undefined): the GI50 in the assay on ACHN is > 100 µM (inactive); in the assay on UACC-257 it was > 100 µM (inactive); in the assay on NCI-H522, 9.55 µM (inactive); in the assay with SK-MEL-5, 44.5 µM (inactive); in the assay with SF-539, 50.2 µM (inactive); in the assay on COLO 205 it was > 100 µM (inactive). In addition, the GI50 in the assay with KM12 was > 100 µM (inactive); with MOLT-4, > 100 µM (inactive); in the assay on HCT-15, over 100 µM; in the assay on HCT-116, > 100 µM (inactive); in the assay on IGROV-1, > 100 µM (inactive); in the assay on Malme-3M, > 100 µM (inactive). Besides, the GI50 in the assay on U-251 is > 100 µM (inactive); in the assay on SNB-75 it was > 100 µM (inactive); with UO-31 it was 86.5 µM (inactive); in the assay with SR, 55.2 µM (inactive).

Turning to `CN(C)c1nc(N(C)C)n2nc(-c3ccccc3[N+](=O)[O-])nc2n1`, the GI50 in the assay with ACHN is > 100 µM (inactive); in the assay with UACC-257 it was > 100 µM (inactive); in the assay with NCI-H522 it was > 100 µM (inactive); in the assay on SK-MEL-5 it was > 100 µM (inactive); in the assay on SF-539 it was 33 µM (inactive); in the assay with COLO 205, 70.1 µM (inactive). For the same compound, the GI50 with KM12 was > 100 µM (inactive); with MOLT-4, > 100 µM (inactive); with SK-OV-3 it was > 100 µM (inactive); in the assay on HCT-15, 16.3 µM; with HCT-116 it was 35.6 µM (inactive); in the assay with IGROV-1, > 100 µM (inactive). Also, the GI50 with Malme-3M, with U-251, in the assay on SNB-75, with UO-31 and with SR was > 100 µM (inactive) in each case.

For the compound `C[Si](C)(C)/C=C/CCC(C=O)(CCCl)c1ccccc1` (centres undefined), the GI50 in the assay on ACHN was 22.8 µM (inactive); in the assay on UACC-257 it was 26.2 µM (inactive); in the assay with NCI-H522 it was 13.9 µM (inactive); with SK-MEL-5, 17.8 µM (inactive); in the assay on SF-539, 31.2 µM (inactive); in the assay with COLO 205 it was 29.2 µM (inactive). Further, the GI50 in the assay with KM12 is 26.7 µM (inactive); in the assay with MOLT-4 it was 16.3 µM (inactive); with SK-OV-3 it was 56.9 µM (inactive); with HCT-15, 19.5 µM; in the assay with HCT-116 it was 14.1 µM (inactive); in the assay on IGROV-1, 41.1 µM (inactive). Moreover, the GI50 with Malme-3M was 17.6 µM (inactive); in the assay on U-251, 15.7 µM (inactive); with SNB-75 it was 35.2 µM (inactive); in the assay on UO-31 it was 44.2 µM (inactive); in the assay with SR, > 10 µM (inactive).

With `O=C1C(Cl)C(c2cccc(O)c2)N1n1cnc2ccccc2c1=O` (centres undefined), the GI50 in the assay with ACHN was > 100 µM (inactive); in the assay on UACC-257, > 100 µM (inactive); with NCI-H522, > 100 µM (inactive); in the assay on SK-MEL-5 it was > 100 µM (inactive); with COLO 205, > 100 µM (inactive); in the assay with MOLT-4 it was 57.5 µM (inactive). In addition, the GI50 in the assay on SK-OV-3 was > 100 µM (inactive); in the assay on HCT-15, over 100 µM; in the assay with HCT-116 it was 89.9 µM (inactive); with IGROV-1, 60.5 µM (inactive); in the assay with Malme-3M, > 100 µM (inactive); with U-251 it was > 100 µM (inactive). For the same compound, the GI50 in the assay on SNB-75 was 27.9 µM (inactive); in the assay with UO-31 it was 15 µM (inactive); with SR, 26 µM (inactive).

For the compound `CCCC(O)c1ccc2[nH]c3c(C)cc([N+](=O)[O-])c(C)c3c2c1` (centres undefined), the GI50 is > 100 µM (inactive) in the assay on ACHN; > 100 µM (inactive) in the assay on UACC-257; > 100 µM (inactive) in the assay with NCI-H522; > 100 µM (inactive) in the assay with SK-MEL-5; > 100 µM (inactive) with SF-539; 93.1 µM (inactive) in the assay on COLO 205. The GI50 in the assay with KM12 is > 100 µM (inactive); in the assay on MOLT-4, > 100 µM (inactive); in the assay on HCT-15 it was over 100 µM; in the assay on HCT-116, > 100 µM (inactive); in the assay on Malme-3M it was > 100 µM (inactive); in the assay on SNB-75, > 100 µM (inactive). Further, the GI50 in the assay on UO-31 and in the assay on SR was > 100 µM (inactive) throughout.

For `CCOC(=O)C(CC/C=C\c1ccccc1)N1CCC[C@H]1C(=O)OC` (some centres undefined), the GI50 in the assay on ACHN, with UACC-257, with NCI-H522, in the assay with SK-MEL-5, in the assay with SF-539 and with COLO 205 was > 100 µM (inactive) throughout. The GI50 with KM12 is > 100 µM (inactive); with MOLT-4 it was 39.1 µM (inactive); with SK-OV-3, > 100 µM (inactive); in the assay on HCT-116, > 100 µM (inactive); in the assay on IGROV-1, > 100 µM (inactive); with Malme-3M, > 100 µM (inactive). Moreover, the GI50 is > 100 µM (inactive) in the assay with U-251, > 100 µM (inactive) with SNB-75, > 100 µM (inactive) in the assay with UO-31 and 40 µM (inactive) with SR.

For `COC1=CC(=O)[C@]2(C)[C@H](C1=O)C(C)[C@H]2c1ccc(OC)cc1` (some centres undefined), the GI50 with ACHN is > 100 µM (inactive); in the assay on UACC-257 it was 91.6 µM (inactive); in the assay with NCI-H522, > 100 µM (inactive); in the assay on SK-MEL-5, > 100 µM (inactive); with SF-539, > 100 µM (inactive); with COLO 205, > 100 µM (inactive). Further, the GI50 is > 100 µM (inactive) in the assay with KM12; > 100 µM (inactive) in the assay on MOLT-4; > 100 µM (inactive) in the assay with SK-OV-3; over 100 µM with HCT-15; > 100 µM (inactive) in the assay with IGROV-1; > 100 µM (inactive) in the assay on Malme-3M. Further, the GI50 in the assay with U-251 is > 100 µM (inactive); with SNB-75, > 100 µM (inactive); in the assay on UO-31, 82 µM (inactive); with SR, > 100 µM (inactive).

For the origin of these results see ChEMBL document CHEMBL1201862, “PubChem BioAssay data set” (2004).
